One compound from PMC9719519, “Non-classical ferroptosis inhibition by a small molecule targeting PHB2” (Nature Communications, 2022) can be followed below.

Holding throughout (assay): biochemical
Set-up in all cases: Eurofins recombinant human kinase profiling, remaining kinase activity as % of control, 10 uM ATP
What all share (conditions): ATP 10 uM; read-out: %Ctrl@10 μM

Experiment [1] deals with T1, CK2α2(h) (Homo sapiens, UniProt P19784).
T1 construct: gene CSNK2A2
Summed up: (§1)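 Recombinant human kinases, 401 in total, screened using an outsourced kinase profiling assay.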

For experiment [2], the target named is Bmx(h) (Homo sapiens, UniProt P51813). Summed up:
as §1

For experiment [3], the target named is Axl(h) (Homo sapiens, UniProt P30530). Summed up:
as §1

The target in experiment [4] is T2, GCN2(h) (Homo sapiens, UniProt Q9P2K8).
T2 construct: gene EIF2AK4
Summed up: as §1

Experiment [5] deals with T3, TrkA(h) (Homo sapiens, UniProt P04629).
T3 construct: gene NTRK1
Summed up: as §1

The target of experiment [6] is T4, PRK2(h) (Homo sapiens, UniProt Q16513).
T4 construct: gene PKN2
Put shortly: as §1

The target of experiment [7] is T5, JNK1α1(h) (Homo sapiens, UniProt P45983).
T5 construct: gene MAPK8; isoform alpha1
Put shortly: as §1

Experiment [8] concerns the target T6, MAPKAP-K3(h) (Homo sapiens, UniProt Q16644).
T6 construct: gene MAPKAPK3
Summed up:
as §1

For experiment [9], the target named is T7, GCK(h) (Homo sapiens, UniProt Q12851).
T7 construct: gene MAP4K2
Summed up: as §1

Experiment [10] concerns the target Fes(h) (Homo sapiens, UniProt P07332). Put shortly:
as §1

Experiment [11] has as its target EphB1(h) (Homo sapiens, UniProt P54762). Put shortly:
as §1

The target in experiment [12] is T8, PKAcβ(h) (Homo sapiens, UniProt P22694).
T8 construct: gene PRKACB
Summed up: as §1

The target of experiment [13] is HIPK1(h) (Homo sapiens, UniProt Q86Z02). Put shortly: as §1
Experiment [14] addresses STK33(h) (Homo sapiens, UniProt Q9BYT3). Summed up:
as §1

Experiment [15] has as its target T9, PKG1α(h) (Homo sapiens, UniProt Q13976).
T9 construct: gene PRKG1; isoform 1alpha
Summed up: as §1

Experiment [16] addresses T10, IRR(h) (Homo sapiens, UniProt P14616).
T10 construct: gene INSRR
Put shortly: as §1

Experiment [17] deals with STK32B(h) (Homo sapiens, UniProt Q9NY57). Put shortly:
as §1

In experiment [18] the target is STK32C(h) (Homo sapiens, UniProt Q86UX6). Put shortly: as §1
The target of experiment [19] is PAK2(h) (Homo sapiens, UniProt Q13177). Put shortly: as §1
The target in experiment [20] is Wee1(h) (Homo sapiens, UniProt P30291). Put shortly: as §1
Experiment [21] concerns the target EphA3(h) (Homo sapiens, UniProt P29320). Put shortly:
as §1

Experiment [22] deals with T11, CK2(h) (Homo sapiens, UniProt P68400).
T11 construct: gene CSNK2A1
Summed up:
as §1

Experiment [23] concerns the target CDK7/cyclinH/MAT1(h) (Homo sapiens, UniProt P50613). Summed up:
as §1

T2 sequence (Q9P2K8 whole entry): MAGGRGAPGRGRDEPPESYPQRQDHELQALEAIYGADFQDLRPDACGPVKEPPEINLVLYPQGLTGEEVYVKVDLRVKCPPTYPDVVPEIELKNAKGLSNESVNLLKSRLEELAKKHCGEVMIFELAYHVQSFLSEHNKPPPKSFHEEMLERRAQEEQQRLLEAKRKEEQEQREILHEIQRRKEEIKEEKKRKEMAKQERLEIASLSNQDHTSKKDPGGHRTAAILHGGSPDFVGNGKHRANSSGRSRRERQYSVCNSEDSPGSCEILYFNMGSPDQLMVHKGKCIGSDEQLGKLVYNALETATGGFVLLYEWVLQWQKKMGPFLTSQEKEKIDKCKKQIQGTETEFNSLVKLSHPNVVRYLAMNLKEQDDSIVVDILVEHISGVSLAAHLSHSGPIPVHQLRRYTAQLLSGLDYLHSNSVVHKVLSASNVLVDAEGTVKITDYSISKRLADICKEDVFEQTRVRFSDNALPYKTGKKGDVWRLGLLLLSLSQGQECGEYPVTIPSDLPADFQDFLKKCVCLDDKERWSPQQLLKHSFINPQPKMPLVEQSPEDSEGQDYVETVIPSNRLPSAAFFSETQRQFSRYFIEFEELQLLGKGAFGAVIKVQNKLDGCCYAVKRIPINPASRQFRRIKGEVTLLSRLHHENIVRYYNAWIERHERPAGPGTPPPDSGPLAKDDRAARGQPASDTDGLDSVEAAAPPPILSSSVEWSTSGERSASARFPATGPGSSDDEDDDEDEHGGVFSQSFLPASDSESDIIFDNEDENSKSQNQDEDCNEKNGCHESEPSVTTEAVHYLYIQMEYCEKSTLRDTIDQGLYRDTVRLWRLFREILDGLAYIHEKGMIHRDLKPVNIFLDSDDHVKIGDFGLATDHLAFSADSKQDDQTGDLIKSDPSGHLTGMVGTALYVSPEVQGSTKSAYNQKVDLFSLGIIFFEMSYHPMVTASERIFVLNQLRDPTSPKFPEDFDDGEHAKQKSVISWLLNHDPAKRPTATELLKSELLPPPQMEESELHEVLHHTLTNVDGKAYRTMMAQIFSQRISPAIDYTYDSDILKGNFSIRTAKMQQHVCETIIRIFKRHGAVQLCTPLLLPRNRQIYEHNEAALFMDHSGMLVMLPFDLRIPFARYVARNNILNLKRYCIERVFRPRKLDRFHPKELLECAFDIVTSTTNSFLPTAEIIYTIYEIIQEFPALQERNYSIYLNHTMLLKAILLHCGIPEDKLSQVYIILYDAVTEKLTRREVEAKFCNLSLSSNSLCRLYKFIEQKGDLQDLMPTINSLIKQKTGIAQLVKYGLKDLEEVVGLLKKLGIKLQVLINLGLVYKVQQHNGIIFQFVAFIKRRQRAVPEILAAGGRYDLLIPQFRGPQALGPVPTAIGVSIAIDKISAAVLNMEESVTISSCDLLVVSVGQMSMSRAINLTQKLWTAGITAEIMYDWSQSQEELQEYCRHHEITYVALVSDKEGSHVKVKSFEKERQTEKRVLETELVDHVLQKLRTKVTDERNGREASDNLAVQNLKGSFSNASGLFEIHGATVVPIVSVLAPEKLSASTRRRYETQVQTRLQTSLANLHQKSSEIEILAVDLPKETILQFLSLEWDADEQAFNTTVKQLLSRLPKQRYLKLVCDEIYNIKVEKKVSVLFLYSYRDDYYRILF
T1 sequence (P19784 whole entry): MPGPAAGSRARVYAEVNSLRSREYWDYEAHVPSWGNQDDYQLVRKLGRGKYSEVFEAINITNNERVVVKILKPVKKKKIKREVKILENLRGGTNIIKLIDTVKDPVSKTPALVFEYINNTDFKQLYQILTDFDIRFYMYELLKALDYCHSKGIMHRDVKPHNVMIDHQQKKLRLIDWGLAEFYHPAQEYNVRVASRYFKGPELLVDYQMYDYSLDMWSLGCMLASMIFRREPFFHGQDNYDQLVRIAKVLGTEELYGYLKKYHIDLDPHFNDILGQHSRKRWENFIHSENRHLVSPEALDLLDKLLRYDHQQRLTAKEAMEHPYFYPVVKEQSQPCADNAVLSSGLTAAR
Sequence of STK32C(h) (Q86UX6 whole entry): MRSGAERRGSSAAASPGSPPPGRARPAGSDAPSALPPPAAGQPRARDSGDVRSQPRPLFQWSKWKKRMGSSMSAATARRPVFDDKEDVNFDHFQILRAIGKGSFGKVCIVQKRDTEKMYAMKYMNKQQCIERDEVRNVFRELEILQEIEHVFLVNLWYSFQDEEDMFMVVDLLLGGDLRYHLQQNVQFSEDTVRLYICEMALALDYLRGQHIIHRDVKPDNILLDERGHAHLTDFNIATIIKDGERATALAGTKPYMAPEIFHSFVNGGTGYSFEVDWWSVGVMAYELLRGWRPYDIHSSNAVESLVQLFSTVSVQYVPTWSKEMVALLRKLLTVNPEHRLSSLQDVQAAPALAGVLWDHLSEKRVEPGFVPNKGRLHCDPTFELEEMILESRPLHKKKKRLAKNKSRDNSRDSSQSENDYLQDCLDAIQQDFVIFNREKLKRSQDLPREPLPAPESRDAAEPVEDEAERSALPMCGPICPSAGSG
T6 sequence (Q16644 whole entry): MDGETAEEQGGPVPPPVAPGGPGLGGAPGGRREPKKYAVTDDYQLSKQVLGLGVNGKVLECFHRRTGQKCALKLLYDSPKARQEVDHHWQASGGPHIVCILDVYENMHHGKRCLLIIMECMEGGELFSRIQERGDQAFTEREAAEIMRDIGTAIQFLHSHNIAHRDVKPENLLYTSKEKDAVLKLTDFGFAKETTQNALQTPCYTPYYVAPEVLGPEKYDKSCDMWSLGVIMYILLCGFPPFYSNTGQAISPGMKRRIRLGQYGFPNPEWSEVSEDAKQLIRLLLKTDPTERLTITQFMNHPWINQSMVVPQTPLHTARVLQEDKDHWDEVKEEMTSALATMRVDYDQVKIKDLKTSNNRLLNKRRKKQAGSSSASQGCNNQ
Sequence of PAK2(h) (Q13177 whole entry): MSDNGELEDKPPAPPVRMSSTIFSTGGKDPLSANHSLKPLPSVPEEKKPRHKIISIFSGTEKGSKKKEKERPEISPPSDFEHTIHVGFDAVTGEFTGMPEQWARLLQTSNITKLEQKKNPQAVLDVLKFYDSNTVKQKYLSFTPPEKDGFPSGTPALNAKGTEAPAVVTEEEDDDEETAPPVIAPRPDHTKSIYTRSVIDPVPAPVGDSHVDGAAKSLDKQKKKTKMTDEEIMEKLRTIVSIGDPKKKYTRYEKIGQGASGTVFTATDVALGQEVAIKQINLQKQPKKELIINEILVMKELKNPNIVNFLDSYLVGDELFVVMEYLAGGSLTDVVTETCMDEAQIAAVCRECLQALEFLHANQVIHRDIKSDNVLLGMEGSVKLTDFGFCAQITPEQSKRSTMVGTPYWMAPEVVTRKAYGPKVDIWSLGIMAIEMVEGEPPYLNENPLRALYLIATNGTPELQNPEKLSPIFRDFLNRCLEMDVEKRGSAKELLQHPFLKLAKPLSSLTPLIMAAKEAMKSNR
T3 sequence (P04629 whole entry): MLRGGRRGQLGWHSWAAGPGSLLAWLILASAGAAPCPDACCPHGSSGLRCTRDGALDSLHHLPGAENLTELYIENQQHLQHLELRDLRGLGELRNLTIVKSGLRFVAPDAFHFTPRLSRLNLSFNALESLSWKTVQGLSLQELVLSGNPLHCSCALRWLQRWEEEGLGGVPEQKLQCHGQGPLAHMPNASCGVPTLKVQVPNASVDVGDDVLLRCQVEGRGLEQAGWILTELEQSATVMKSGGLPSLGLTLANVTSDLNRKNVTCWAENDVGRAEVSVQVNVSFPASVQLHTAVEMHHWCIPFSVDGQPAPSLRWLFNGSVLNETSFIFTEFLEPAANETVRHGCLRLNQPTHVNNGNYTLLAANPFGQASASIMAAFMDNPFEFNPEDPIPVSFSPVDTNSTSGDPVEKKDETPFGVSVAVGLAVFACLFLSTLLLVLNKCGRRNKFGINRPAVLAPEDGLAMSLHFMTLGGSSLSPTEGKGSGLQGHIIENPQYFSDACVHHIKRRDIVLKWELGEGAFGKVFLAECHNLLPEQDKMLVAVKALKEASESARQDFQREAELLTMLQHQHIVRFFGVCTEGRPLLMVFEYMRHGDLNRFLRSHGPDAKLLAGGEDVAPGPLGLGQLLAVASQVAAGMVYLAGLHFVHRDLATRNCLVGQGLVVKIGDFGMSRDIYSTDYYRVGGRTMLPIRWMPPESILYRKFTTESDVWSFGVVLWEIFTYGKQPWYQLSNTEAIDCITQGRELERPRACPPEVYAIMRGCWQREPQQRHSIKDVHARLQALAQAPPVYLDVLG
T5 sequence (P45983 whole entry, canonical isoform): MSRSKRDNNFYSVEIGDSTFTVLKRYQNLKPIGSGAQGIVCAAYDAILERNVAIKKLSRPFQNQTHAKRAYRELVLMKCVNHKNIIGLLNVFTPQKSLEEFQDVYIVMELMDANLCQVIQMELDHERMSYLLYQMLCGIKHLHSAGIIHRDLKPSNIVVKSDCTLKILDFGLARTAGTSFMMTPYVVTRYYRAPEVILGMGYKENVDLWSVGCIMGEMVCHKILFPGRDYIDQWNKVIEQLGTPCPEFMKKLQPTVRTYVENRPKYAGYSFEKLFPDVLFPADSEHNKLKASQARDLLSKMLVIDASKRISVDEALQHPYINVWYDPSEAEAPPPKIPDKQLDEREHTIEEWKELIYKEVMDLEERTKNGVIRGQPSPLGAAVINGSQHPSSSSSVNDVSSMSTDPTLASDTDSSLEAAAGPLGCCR
Sequence of STK32B(h) (Q9NY57 whole entry): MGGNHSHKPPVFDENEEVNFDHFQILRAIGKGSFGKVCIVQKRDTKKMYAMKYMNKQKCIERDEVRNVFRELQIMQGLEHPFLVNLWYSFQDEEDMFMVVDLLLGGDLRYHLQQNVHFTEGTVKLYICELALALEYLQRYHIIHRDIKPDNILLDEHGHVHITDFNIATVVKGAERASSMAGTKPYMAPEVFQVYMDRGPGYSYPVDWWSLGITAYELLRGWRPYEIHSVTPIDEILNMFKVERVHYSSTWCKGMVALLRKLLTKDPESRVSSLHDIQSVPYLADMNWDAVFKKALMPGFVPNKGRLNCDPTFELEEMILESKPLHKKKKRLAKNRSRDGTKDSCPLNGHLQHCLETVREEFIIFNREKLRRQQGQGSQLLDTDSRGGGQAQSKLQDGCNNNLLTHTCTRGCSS

Take `C1=C(c2nc(-c3cnn(C4CCNCC4)c3)cn3cc(-c4ccccc4)nc23)CCOC1` [YL-939]: the remaining activity at 10 µM in [1] amounted to 98%; in experiment [2], 87%; in [3], 84%; in [4], 67%; in experiment [5], 75%; in experiment [6], 89%. The remaining activity at 10 µM in experiment [7] was found to be 109%; in experiment [8], 102%; in experiment [9] it was 76%; in [10], 86%; in [11], 99%; in experiment [12], 94%. For the same compound, the remaining activity at 10 µM in [13] amounted to 97%; in [14] it was 105%; in experiment [15] it was 90%; in experiment [16], 74%; in experiment [17], 105%; in [18], 82%. Moreover, the remaining activity at 10 µM in experiment [19] amounted to 90%; in experiment [20] it was 99%; in experiment [21] it was 73%; in experiment [22], 97%; in [23] it was 92%.
